Several values for one entry are separate records, joined by “and”; a condition that tells them apart may be missing. Equal values may be shown once. Toxic doses and inconclusive results are not listed.
System: BDF1 mice, L1210 terephthalanilide-resistant leukemia ip, survival T/C
Experiment: NCI In Vivo Anticancer Drug Screen. Data for tumor model L1210 Leukemia resistant to A Terephthalanilide; NSC 38280 (intraperitoneal) in B6D2F1 (BDF1) mice
Conditions: endpoint: mean survival time, higher = longer survival
Procedure: The antitumor activity of compounds was measured in mice bearing transplantable tumors. Survival or tumor size were measured and the results are expressed as the measurement made in the treated group (T) divided by the measurement made in the vehicle treated control group (C). The tumor model used in this assay is L1210 Leukemia resistant to A Terephthalanilide; NSC 38280 (intraperitoneal) in B6D2F1 (BDF1) mice

[1] = dose: 5.0 mg/kg/injection, schedule: Q01DX010 (ip), vehicle: saline
[2] = dose: 87.5 mg/kg/injection, schedule: Q01DX Z (ip), vehicle: other
[3] = dose: 20.0 mg/kg/injection, schedule: Q01DX010 (ip), vehicle: saline
[4] = dose: 8.0 mg/kg/injection, schedule: Q01DX010 (ip), vehicle: saline
[5] = dose: 16.0 mg/kg/injection, schedule: Q01DX010 (ip), vehicle: saline
[6] = dose: 32.0 mg/kg/injection, schedule: Q01DX010 (ip), vehicle: saline
[7] = dose: 0.5 mg/kg/injection, schedule: Q01DX010 (ip), vehicle: saline
[8] = dose: 1.0 mg/kg/injection, schedule: Q01DX010 (ip), vehicle: saline
[9] = dose: 25.0 mg/kg/injection, schedule: Q01DX Z (ip), vehicle: saline
[10] = dose: 50.0 mg/kg/injection, schedule: Q01DX Z (ip), vehicle: saline
[11] = dose: 75.0 mg/kg/injection, schedule: Q01DX Z (ip), vehicle: saline
[12] = dose: 200.0 mg/kg/injection, schedule: Q01DX Z (ip), vehicle: saline
[13] = dose: 2.0 mg/kg/injection, schedule: Q01DX Z (ip), vehicle: carboxymethylcellulose (CMC)

For `NC12CC3CC(CC(C3)C1)C2`, the T/C (dose: 25.0 mg/kg/injection, schedule: Q01DX010 (ip), vehicle: saline) was 108 % of control, the T/C (dose: 50.0 mg/kg/injection, schedule: Q01DX010 (ip), vehicle: saline) was 106 % of control and the T/C (dose: 100.0 mg/kg/injection, schedule: Q01DX010 (ip), vehicle: saline) was 101 % of control.

In the case of `CC[n+]1c(-c2ccccc2)c2cc(N)ccc2c2ccc(N)cc21`, the T/C (dose: 1.25 mg/kg/injection, schedule: Q01DX010 (ip), vehicle: saline) is reported as 100 % of control, the T/C (dose: 2.5 mg/kg/injection, schedule: Q01DX010 (ip), vehicle: saline) is reported as 90 % of control and the T/C [1] is reported as 101 % of control. The T/C (dose: 10.0 mg/kg/injection, schedule: Q01DX010 (ip), vehicle: saline) was 95 % of control.

In the case of `Cn1c(O)c(N=NC(N)=S)c2ccccc21`, the T/C (dose: 25.0 mg/kg/injection, schedule: Q01DX Z (ip), vehicle: carboxymethylcellulose (CMC)) is reported as 93 % of control, the T/C (dose: 50.0 mg/kg/injection, schedule: Q01DX Z (ip), vehicle: carboxymethylcellulose (CMC)) is reported as 90 % of control and the T/C (dose: 100.0 mg/kg/injection, schedule: Q01DX Z (ip), vehicle: carboxymethylcellulose (CMC)) is reported as 87 % of control. For the same compound, the T/C (dose: 200.0 mg/kg/injection, schedule: Q01DX Z (ip), vehicle: carboxymethylcellulose (CMC)) was 89 % of control.

`CCCSc1ncnc2nc[nH]c12` was tested, and the T/C (dose: 31.3 mg/kg/injection, schedule: Q01DX010 (ip), vehicle: saline) was 95 % of control and 99 % of control, the T/C (dose: 44.0 mg/kg/injection, schedule: Q01DX Z (ip), vehicle: other) was 96 % of control and the T/C (dose: 62.5 mg/kg/injection, schedule: Q01DX010 (ip), vehicle: saline) was 106 % of control and 111 % of control. The T/C [2] was 121 % of control and the T/C (dose: 125.0 mg/kg/injection, schedule: Q01DX010 (ip), vehicle: saline) was 100 % of control and 111 % of control.

In the case of `CN=C(NC)c1ccc(NC(=O)Nc2ccc(NC(=O)Nc3ccc(C(=NC)NC)cc3)cc2)cc1`, the T/C (dose: 13.3 mg/kg/injection, schedule: Q01DX010 (ip), vehicle: saline) is reported as 101 % of control and the T/C [3] is reported as 101 % of control.

`Nc1nc(SCc2ccccc2)c2[nH]cnc2n1` was tested, and the T/C [4] was 92 % of control and 104 % of control, the T/C [5] was 104 % of control and the T/C [6] was 115 % of control. For the same compound, the T/C (dose: 62.5 mg/kg/injection, schedule: Q01DX Z (ip), vehicle: carboxymethylcellulose (CMC)) was 111 % of control, the T/C (dose: 64.0 mg/kg/injection, schedule: Q01DX010 (ip), vehicle: saline) was 95 % of control and 114 % of control and the T/C (dose: 125.0 mg/kg/injection, schedule: Q01DX Z (ip), vehicle: carboxymethylcellulose (CMC)) was 107 % of control.

In the case of `C=C1C[C@H]2[C@@H]3C=C(C)C4=CC(=O)CC[C@]4(C)[C@H]3CC[C@]2(C)[C@@]1(OC(C)=O)C(C)=O`, the T/C (dose: 62.5 mg/kg/injection, schedule: Q01DX010 (sc), vehicle: steriod suspending solution) is reported as 101 % of control, the T/C (dose: 125.0 mg/kg/injection, schedule: Q01DX010 (sc), vehicle: steriod suspending solution) is reported as 93 % of control and the T/C (dose: 250.0 mg/kg/injection, schedule: Q01DX010 (sc), vehicle: steriod suspending solution) is reported as 97 % of control. The T/C (dose: 500.0 mg/kg/injection, schedule: Q01DX010 (sc), vehicle: steriod suspending solution) was 95 % of control.

With `O=C(Nc1ccc(C2=NCCN2)cc1)Nc1cccc(NC(=O)Nc2ccc(C3=NCCN3)cc2)c1` the T/C (dose: 60.0 mg/kg/injection, schedule: Q01DX010 (ip), vehicle: saline) was 96 % of control and 110 % of control, the T/C (dose: 120.0 mg/kg/injection, schedule: Q01DX010 (ip), vehicle: saline) was 92 % of control and 116 % of control and the T/C (dose: 240.0 mg/kg/injection, schedule: Q01DX010 (ip), vehicle: saline) was 96 % of control and 100 % of control. For the same compound, the T/C (dose: 480.0 mg/kg/injection, schedule: Q01DX010 (ip), vehicle: saline) was 86 % of control and 87 % of control.

For `NC(=O)N(CCCl)N=O`, the T/C [7] was 162 % of control, the T/C [8] was 165 % of control and the T/C (dose: 1.0 mg/kg/injection, schedule: Q01DX Z (ip), vehicle: saline) was 348 % of control. For the same compound, the T/C (dose: 2.0 mg/kg/injection, schedule: Q01DX Z (ip), vehicle: saline) was 252 % of control and the T/C (dose: 6.0 mg/kg/injection, schedule: Q01DX Z (ip), vehicle: saline) was 110 % of control.

`O=P1(N(CCCl)CCCl)NCCCO1` (stereo unspecified) was tested, and the T/C (dose: 5.0 mg/kg/injection, schedule: Q01DX Z (ip), vehicle: saline) was 102 % of control, the T/C (dose: 10.0 mg/kg/injection, schedule: Q01DX Z (ip), vehicle: saline) was 124 % of control and the T/C (dose: 15.0 mg/kg/injection, schedule: Q01DX Z (ip), vehicle: saline) was 122 % of control. The T/C [9] was 160 % of control, the T/C (dose: 37.5 mg/kg/injection, schedule: Q01DX Z (ip), vehicle: saline) was 200 % of control and the T/C [10] was 166 % of control and 239 % of control. The T/C [11] was 102 % of control and the T/C [12] was 100 % of control.

With `CN(C)c1ccc(/C=C/c2ccnc3ccccc23)cc1` the T/C (dose: 4.0 mg/kg/injection, schedule: Q01DX010 (ip), vehicle: saline) was 96 % of control and 97 % of control, the T/C (dose: 6.25 mg/kg/injection, schedule: Q01DX Z (ip), vehicle: saline) was 90 % of control and the T/C [4] was 100 % of control and 101 % of control. The T/C (dose: 12.5 mg/kg/injection, schedule: Q01DX Z (ip), vehicle: saline) was 100 % of control, the T/C [5] was 99 % of control and 100 % of control and the T/C [9] was 100 % of control. The T/C [6] was 101 % of control, the T/C [10] was 90 % of control and the T/C [11] was 96 % of control and 100 % of control. The T/C (dose: 100.0 mg/kg/injection, schedule: Q01DX Z (ip), vehicle: saline) was 94 % of control and 108 % of control, the T/C (dose: 150.0 mg/kg/injection, schedule: Q01DX Z (ip), vehicle: saline) was 96 % of control and 102 % of control and the T/C [12] was 94 % of control.

For `CS(=O)(=O)OCCN(CCOS(C)(=O)=O)c1ccc(N=O)cc1`, the T/C [7] was 122 % of control, the T/C [8] was 115 % of control and the T/C (dose: 2.0 mg/kg/injection, schedule: Q01DX010 (ip), vehicle: saline) was 98 % of control. For the same compound, the T/C (dose: 125.0 micrograms/kg/injection, schedule: Q01DX010 (ip), vehicle: saline) was 118 % of control and the T/C (dose: 1000.0 micrograms/kg/injection, schedule: Q01DX010 (ip), vehicle: saline) was 116 % of control.

`Cn1cnc([N+](=O)[O-])c1Sc1nc(N)nc2nc[nH]c12` was tested, and the T/C (dose: 0.5 mg/kg/injection, schedule: Q01DX Z (ip), vehicle: carboxymethylcellulose (CMC)) was 117 % of control, the T/C [13] was 191 % of control and the T/C (dose: 3.75 mg/kg/injection, schedule: Q01DX Z (ip), vehicle: carboxymethylcellulose (CMC)) was 170 % of control. For the same compound, the T/C (dose: 10.0 mg/kg/injection, schedule: Q01DX Z (ip), vehicle: carboxymethylcellulose (CMC)) was 120 % of control.

For `N[C@@H](Cc1ccc(N(CCCl)CCCl)cc1)C(=O)O`, the T/C [13] was 252 % of control, the T/C (dose: 4.0 mg/kg/injection, schedule: Q01DX Z (ip), vehicle: carboxymethylcellulose (CMC)) was 155 % of control and the T/C (dose: 8.0 mg/kg/injection, schedule: Q01DX Z (ip), vehicle: carboxymethylcellulose (CMC)) was 187 % of control. The T/C (dose: 12.0 mg/kg/injection, schedule: Q01DX Z (ip), vehicle: carboxymethylcellulose (CMC)) was 169 % of control and the T/C (dose: 18.0 mg/kg/injection, schedule: Q01DX Z (ip), vehicle: carboxymethylcellulose (CMC)) was 91 % of control.

With `N=C(N)c1ccc(Nc2ccc(C(=N)N)cc2)cc1` the T/C (dose: 3.0 mg/kg/injection, schedule: Q01DX010 (ip), vehicle: saline) was 94 % of control, the T/C (dose: 6.0 mg/kg/injection, schedule: Q01DX010 (ip), vehicle: saline) was 91 % of control and the T/C (dose: 7.5 mg/kg/injection, schedule: Q01DX Z (ip), vehicle: water) was 95 % of control. The T/C (dose: 10.0 mg/kg/injection, schedule: Q01DX Z (ip), vehicle: water) was 95 % of control, the T/C (dose: 12.0 mg/kg/injection, schedule: Q01DX010 (ip), vehicle: saline) was 95 % of control and the T/C (dose: 15.0 mg/kg/injection, schedule: Q01DX Z (ip), vehicle: water) was 95 % of control. The T/C (dose: 20.0 mg/kg/injection, schedule: Q01DX Z (ip), vehicle: water) was 103 % of control.

With `CN(C)c1nc(N(C)C)nc(N(C)C)n1` the T/C (dose: 18.8 mg/kg/injection, schedule: Q01DX010 (ip), vehicle: saline) was 94 % of control and 95 % of control, the T/C (dose: 37.5 mg/kg/injection, schedule: Q01DX010 (ip), vehicle: saline) was 94 % of control and 100 % of control and the T/C (dose: 75.0 mg/kg/injection, schedule: Q01DX010 (ip), vehicle: saline) was 94 % of control and 99 % of control. For the same compound, the T/C [2] was 110 % of control, the T/C (dose: 150.0 mg/kg/injection, schedule: Q01DX010 (ip), vehicle: saline) was 96 % of control and 99 % of control and the T/C (dose: 175.0 mg/kg/injection, schedule: Q01DX Z (ip), vehicle: other) was 119 % of control.

For `C[n+]1ccc(NC(=O)c2ccc(NC(=O)c3cccc(C(=O)Nc4ccc(C(=O)Nc5cc[n+](C)cc5)cc4)c3)cc2)cc1`, the T/C [1] was 87 % of control and the T/C [3] was 116 % of control.
